Assay results: PMC5421877, “SOCS3 inhibits the pathological effects of IL-22 in non-melanoma skin tumor-derived keratinocytes” (Oncotarget, 2017)

Key:
healthy keratinocytes [1] = assay: CyQUANT proliferation assay, healthy keratinocytes; assay type: cell-based, human; conditions: healthy KC; PD98059 20 μM or S3I-201 10 μM, 48 h
Protocol: (§1) Figure 6 IL-22-induced proliferation and migration of healthy and transformed keratinocytes is counteracted by KIR-ESS peptide (A) Healthy KC, CAL27 and CAL33 cultures were plated in 96-well plates in quadruplicate for each condition. After 1 day, cells were pre-treated or not with Ctrl1 or KIR-ESS peptides (40 μM), or S31-201 ([…]) and PD98059 ([…]) chemical inhibitors, and, then, stimulated or not with 50 ng/ml of IL-22. Data relative to 48-h treatment are shown and expressed as the values of fluorescence intensity obtained from untreated and IL-22-treated ± SD. Three independent experiments were performed. *p < 0.01. […] (C) Cell-free area was measured and indicated as residual wound. […]
(§2) SOCS1- and SOCS3 stably transfected keratinocytes or cultured keratinocytes previously transfected with SOCS3 or control siRNA were seeded in 96-well plates (1.5–2.0 × 10^4 cells/well), and, the day after, starved in medium without serum. At 60% confluence, cells were treated with 75 ng/ml of IL-22 for 3 days, stained with 0.5% crystal violet (Bio-Rad, Hercules, CA, USA), and then analyzed in an ELISA reader (model 3550 UV ELISA reader; Bio-Rad). […] After 1-h pre-incubation, cells were treated with IL-22 or left unstimulated, cultured for other 24, 48 and 72 h, and the number of viable cells determined by CyQUANT Cell Proliferation Assay, accordingly to manufacture's protocol. […]

[2] = tested on: SCC-cell lines (CAL27 and CAL33); assay: CyQUANT proliferation assay, SCC-cell lines; assay type: cell-based; conditions: PD98059 20 μM or S3I-201 10 μM, 48 h
Protocol: as §1, §2

CAL33 cells = assay: Scratch assay (migration), CAL33; assay type: cell-based; conditions: 24 h
Protocol: (§3) Figure 6 IL-22-induced proliferation and migration of healthy and transformed keratinocytes is counteracted by KIR-ESS peptide (A) Healthy KC, CAL27 and CAL33 cultures were plated in 96-well plates in quadruplicate for each condition. After 1 day, cells were pre-treated or not with Ctrl1 or KIR-ESS peptides (40 μM), or S31-201 ([…]) and PD98059 ([…]) chemical inhibitors, and, then, stimulated or not with 50 ng/ml of IL-22. Data relative to 48-h treatment are shown and expressed as the values of fluorescence intensity obtained from untreated and IL-22-treated ± SD. Three independent experiments were performed. *p < 0.01. (B) Scratch assays were carried out on healthy or SCC-lines, pre-incubated with mitomycin C (5 mg/ml), pre-treated with Ctrl1 or KIR-ESS peptides (40 μM), or S31-201 ([…]) or PD98059 ([…]) chemical inhibitors, and, then, stimulated or not with IL-22 for 24 h. Microscopic images were taken immediately after and 24 h after wound induction on confluent cell layers. Initial scratches (0 h) are dashed blank. (C) Cell-free area was measured and indicated as residual wound. Data are reported as healed wound (gray area of bars) vs residual wound (white area of bars) which a value of 100% was given. *p < 0.01.
(§4) Cultured keratinocytes and SCC cell lines were grown at 100% confluence on type IV collagen (20 μg/ml), and then incubated with mitomycin C (5 mg/ml) (Sigma-Aldrich) for 1 h. Cell monolayers were scratched with the tip of a p-200 pipette to create uniform cell-free zones, and, then, pre-treated with appropriate concentrations of SOCS3 mimetic or control peptides, or with 10 μM STAT3 (S3I-201, Santa Cruz) and 20 μM Erk1/2 (PD98059, Calbiochem) inhibitors for 1 h, before treating by 50 ng/ml of IL-22. Microscopy pictures were taken with a digital camera at different time points following IL-22 treatment. The residual gap between migrating keratinocytes was measured with a computer-assisted image analysis system (Axiovision; Zeiss, Oberkochen, Germany), and expressed as percentage of the initial scratched area.

CAL27 cells = assay: Scratch assay (migration), CAL27; assay type: cell-based; conditions: CAL27; 40 μM peptide, PD98059 20 μM or S3I-201 10 μM; IL-22 50 ng/ml, 24 h
Protocol: as §3, §4

healthy keratinocytes [3] = assay: Scratch assay (migration), healthy keratinocytes; assay type: cell-based, human; conditions: without IL-22, 40 μM peptide or PD98059 20 μM, 24 h
Protocol: as §1, with “0.01. (B) Scratch assays were carried out on healthy or SCC-lines, pre-incubated with mitomycin C (5 mg/ml), pre-treated with Ctrl1 or KIR-ESS peptides (40 μM), or S31-201 ([…]) or PD98059 ([…]) chemical inhibitors, and, then, stimulated or not with IL-22 for 24 h.” for “0.01.”
Cultured keratinocytes and SCC cell lines were grown at 100% confluence on type IV collagen (20 μg/ml), and then incubated with mitomycin C (5 mg/ml) (Sigma-Aldrich) for 1 h. […] The residual gap between migrating keratinocytes was measured with a computer-assisted image analysis system (Axiovision; Zeiss, Oberkochen, Germany), and expressed as percentage of the initial scratched area.

Structure (SMILES): COc1cccc(-c2cc(=O)c3ccccc3o2)c1N [PD98059]
- proliferation (effect relative to KIR-ESS) (healthy keratinocytes [1]): KIR-ESS effect was similar to that observed in all healthy and transformed keratinocyte cultures
- proliferation (effect relative to KIR-ESS) [2]: KIR-ESS effect was similar to that observed in all healthy and transformed keratinocyte cultures
- wound closure / migration, resting cells (CAL33 cells; CAL33, without IL-22, 40 μM peptide or PD98059 20 μM): efficacious in inhibiting migration of CAL27 cells and healthy or CAL33 keratinocytes, respectively
- wound closure, IL-22-treated (CAL33 cells; CAL33, 40 μM peptide, PD98059 20 μM or S3I-201 10 μM, IL-22 50 ng/ml): effect similar to those obtained with the chemical Erk1/2 and STAT3 inhibitors
- wound closure, IL-22-treated (CAL27 cells): effect similar to those obtained with the chemical Erk1/2 and STAT3 inhibitors
- wound closure / migration, resting cells (healthy keratinocytes [3]): efficacious in inhibiting migration of CAL27 cells and healthy or CAL33 keratinocytes, respectively
